In patent US20100210518A1, “Peg-lipid conjugates for increasing the solubility of drug compounds” (priority 2009, published 2010):

Conditions: mouse, in vivo, 25 mg/kg, pH 6
Procedure: Experiments were performed to determine blood levels of Gefitinib formulations after both intravenous and oral dosing. […] Groups of three male mice (B6D2F1) were used for the studies. HPLC-MS analyses were performed on heparinized mouse plasma samples obtained typically at 0 hr, 0.08 hr, 0.5 hr, 1 hr, 2 hr, 4 hr, 7 hr, 16 hr and 24 hr after bolus IV injection. After oral feeding, the analyses were performed at 0 hr, 0.5 hr, 1 hr, 2 hr, 4 hr, 8 hr, 16 hr and 24 hr. To determine the level of each drug, the drug was first isolated from plasma with a sample pre-treatment. Acetonitrile were used to remove proteins in samples. An isocratic HPLC-MS/MS method was then used to separate the drugs from any potential interference. Drug levels were measured by MS detection with a multiple reaction monitoring (MRM) mode. PK data was analyzed using the WinNonlin program (ver. 5.2, Pharsight) compartmental models of analysis.
The drug was administered orally and the dosing strength was 25 mg/kg. The drug was also administered intravenously and the dosing strength was 25 mg/kg in 15% Cremophor EL® and in 10 mM sodium phosphate buffer (pH 6.0). The AUC (31.3) obtained from the IV administration was used for calculating the relative bioavailability (BA).

3,4-Di(oleoyloxy)-decaethylene glycol-benzoate [DDGB]
relative bioavailability (BA): 56.0%
